# How the values were obtained:
# [1] = Long-term/accelerated stability; type: physicochemical; conditions: for Crystal form: up to 3 months
# [2] = target: T1, CYP3A4 (Homo sapiens (Human), UniProt P08684); test: Time-dependent inhibition of site of metabolism of midazolam in human liver microsome CYP3A4; type: in vitro ADME
# Procedure: (§1) • 1. Phosphate buffer (20×PBS, purchased from Sangon); • 2. NADPH (ACROS, A2646-71-1); • 3. Human liver microsome (Corning Gentest, Cat No. 452161, Lot No. 9050002, Donor, 36); • 4. ABI QTrap 4000 LC-MS System (AB Sciex); • 5. ZORBAX Extend-C18, 3×50 mm, 3.5 m (Agilent, USA); • 6. CYP probe substrate (midazolam, TRC, M343000/3 μM) and positive control inhibitor (verapamil, Adamas Reagent Co., Ltd, Cat No. 25904A).
# A 100 mM PBS buffer was prepared. A 0.25 mg/mL microsome solution, a 7.5 mM MgCl2 and a 5 mM NADPH solution were prepared using the buffer. A 30 mM stock solution was diluted with DMSO to obtain 30 mM, 10 mM, 3 mM, 1 mM, 0.3 mM, 0.1 mM, 0.03 mM and 0 mM serial solutions I, which were further diluted 200-fold with phosphate buffer (PBS) to obtain serial test solutions II (150, 50, 15, 5, 1.5, 0.5, 0.15 and 0 μM). A midazolam working solution was diluted with PBS to 15 μM.
# The serial test solutions prepared above were well mixed by shaking and aliquoted in 20 μL portions into corresponding reaction plates (+NADPH, T0 and -NADPH groups were set). Three parallel tests were set. 40 μL of the liver microsome working solution was added to each 96-well plate. 20 μL of a corresponding substrate solution was added to the TO plate. 20 μL of NADPH was added to the TO plate and +NADPH group. A timer was started, and the plates were incubated in a water bath at 37° C. After 30 min of incubation, the TO plate was taken out, and the reaction was terminated with 250 μL of an internal standard-containing ACN solution. The +NADPH group was supplemented with 20 μL of the corresponding substrate solution, and the −NADPH group was supplemented with 20 μL of the corresponding substrate solution and […]. A timer was started, and the plates were incubated in a water bath at 37° C. After 30 min of incubation, the plates were taken out, and the reactions were terminated with 250 μL of an internal standard-containing ACN solution. […]
# The IC50 value of the drug for the site of metabolism of midazolam in CYP3A4 was calculated by Graphpad Prism and is shown in Table 7.
# [3] = target: T1, CYP3A4; test: Inhibition of site of metabolism of testosterone in human liver microsome CYP3A4; type: in vitro ADME; conditions: 30 min
# Procedure: as §1, with “905002, Donor36);” for “9050002, Donor, 36);”, “(testosterone, Vocko, CAS No. [58-22-0]/75” for “(midazolam, TRC, M343000/3”, “(ketoconazole, SIGMA,” for “(verapamil, Adamas Reagent Co., Ltd,”, “K1003-100MG).” for “25904A).”
# A 100 mM PBS buffer was prepared. A 0.25 mg/mL microsome solution, a 7.5 mM MgCl2 and a 5 mM NADPH solution were prepared using the buffer. A30 mM stock solution was diluted with DMSO to obtain 30 mM, 10 mM, 3 mM, 1 mM, 0.3 mM, 0.03 mM, 0.003 mM and 0 mM serial solutions I, which were further diluted 200-fold with phosphate buffer (PBS) to obtain serial test solutions II (150, 50, 15, 5, 1.5, 0.15, 0.015 and 0 μM). A testosterone working solution was diluted with PBS to 375 μM. 40 μL of a 0.25 mg/mL microsome solution prepared in 7.5 mM MgCl2 and 20 μL of each of the 375 μM testosterone working solution and the compound working solutions (150, 50, 15, 5, 1.5, 0.15, 0.015 and 0 μM) were measured out and well mixed. […]
# The IC50 value of the drug for the site of metabolism of testosterone in CYP3A4 was calculated by Graphpad Prism and is shown in Table 6.
# T1 sequence (P08684 whole entry): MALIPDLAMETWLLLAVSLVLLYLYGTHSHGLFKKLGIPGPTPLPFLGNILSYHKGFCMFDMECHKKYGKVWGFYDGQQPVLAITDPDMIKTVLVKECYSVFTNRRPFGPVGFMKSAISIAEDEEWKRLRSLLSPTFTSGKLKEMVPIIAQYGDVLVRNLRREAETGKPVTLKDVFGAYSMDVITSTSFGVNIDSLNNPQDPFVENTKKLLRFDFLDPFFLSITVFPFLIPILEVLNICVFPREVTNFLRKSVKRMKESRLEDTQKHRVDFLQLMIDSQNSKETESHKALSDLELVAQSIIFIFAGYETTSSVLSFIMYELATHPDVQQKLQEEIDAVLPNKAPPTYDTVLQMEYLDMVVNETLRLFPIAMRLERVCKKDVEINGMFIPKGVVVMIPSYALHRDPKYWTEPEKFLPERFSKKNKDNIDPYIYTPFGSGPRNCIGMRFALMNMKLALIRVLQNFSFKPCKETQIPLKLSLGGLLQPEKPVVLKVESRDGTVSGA
smiles,measurement,setting,value
"[2H]C1([2H])Oc2cc3c(cc2O1)[C@@H](c1ccc(NC2CN(CCCF)C2)cn1)N(CC(F)(F)CO)[C@H](C)C3 [Compound 1, 2,2-Difluoro-3-((5S,7R)-5-(5-((1-(3-fluoropropyl)azetidin-3-yl)amino)pyridin-2-yl)-7-methyl-7,8-dihydro-[1,3]dioxolo[4,5-g]isoquinolin-6(5H)-yl-2,2-d2)propan-1-ol]",Purity (%) 1 month,[1]; 25° C./60% RH,97.1%
same,Purity (%) 2 months,[1]; 25° C./60% RH,96.7%
same,Purity (%) 3 months,[1]; 25° C./60% RH,96.7%
same,Purity (%) 7 days,[1]; 25° C./60% RH,97.1%
same,Purity (%) 14 days,[1]; 25° C./60% RH,97.0%
same,Purity (%) Initial,[1]; 25° C./60% RH,97.1%
same,Crystal form,[1]; 25° C./60% RH,Unchanged
same,Purity (%) 1 month,[1]; 40° C./75% RH,96.5%
same,Purity (%) 2 months,[1]; 40° C./75% RH,95.5%
same,Purity (%) 3 months,[1]; 40° C./75% RH,94.9%
same,Purity (%) 7 days,[1]; 40° C./75% RH,96.8%
same,Purity (%) 14 days,[1]; 40° C./75% RH,96.6%
same,Purity (%) Initial,[1]; 40° C./75% RH,97.1%
same,Crystal form,[1]; 40° C./75% RH,Unchanged
same,IC50 shift at 30 min,"[2]; human, microsomes",0.7
same,IC50,[2]; pre-incubation with NADPH 30 min,13.1 µM
same,IC50,[2]; pre-incubation without NADPH,19.6 µM
same,IC50,[3],> 30 µM

# Reference: US20240374581A1, “SALT TYPES OF TRICYCLIC TETRAHYDRO ISOQUINOLINE DERIVATIVE” (JIANGSU HENGRUI PHARMACEUTICALS CO., LTD., priority 2021, published 2024)
